From ChEMBL document CHEMBL4602614, “Design, synthesis and cholinesterase inhibitory activity of novel spiropyrrolidine tethered imidazole heterocyclic hybrids” (Bioorg Med Chem Lett, 2020)

How the values were obtained:
[1] = target: Cholinesterase (Homo sapiens, UniProt P06276); test: Inhibition of BChE (unknown origin)
[2] = target: Acetylcholinesterase (Homo sapiens, UniProt P22303); test: Inhibition of AChE (unknown origin)
Acetylcholinesterase, sequence (P22303 whole entry): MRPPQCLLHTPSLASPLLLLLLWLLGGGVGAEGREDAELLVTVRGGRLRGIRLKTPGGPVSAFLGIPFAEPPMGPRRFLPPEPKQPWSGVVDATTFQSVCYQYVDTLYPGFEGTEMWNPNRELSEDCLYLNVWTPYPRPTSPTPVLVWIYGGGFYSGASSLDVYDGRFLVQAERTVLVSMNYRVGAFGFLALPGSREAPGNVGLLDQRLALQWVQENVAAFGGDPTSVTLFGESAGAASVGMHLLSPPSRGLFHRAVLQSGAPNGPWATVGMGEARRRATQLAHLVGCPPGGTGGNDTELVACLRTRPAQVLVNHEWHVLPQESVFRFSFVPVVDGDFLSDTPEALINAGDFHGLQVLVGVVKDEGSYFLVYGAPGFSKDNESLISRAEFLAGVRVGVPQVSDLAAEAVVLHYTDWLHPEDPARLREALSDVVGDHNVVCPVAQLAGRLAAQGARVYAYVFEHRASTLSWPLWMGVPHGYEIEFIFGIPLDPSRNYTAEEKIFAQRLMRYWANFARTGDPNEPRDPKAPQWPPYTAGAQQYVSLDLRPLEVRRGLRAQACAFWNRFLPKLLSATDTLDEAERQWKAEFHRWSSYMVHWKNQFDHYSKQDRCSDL

Cholinesterase, sequence (P06276 whole entry): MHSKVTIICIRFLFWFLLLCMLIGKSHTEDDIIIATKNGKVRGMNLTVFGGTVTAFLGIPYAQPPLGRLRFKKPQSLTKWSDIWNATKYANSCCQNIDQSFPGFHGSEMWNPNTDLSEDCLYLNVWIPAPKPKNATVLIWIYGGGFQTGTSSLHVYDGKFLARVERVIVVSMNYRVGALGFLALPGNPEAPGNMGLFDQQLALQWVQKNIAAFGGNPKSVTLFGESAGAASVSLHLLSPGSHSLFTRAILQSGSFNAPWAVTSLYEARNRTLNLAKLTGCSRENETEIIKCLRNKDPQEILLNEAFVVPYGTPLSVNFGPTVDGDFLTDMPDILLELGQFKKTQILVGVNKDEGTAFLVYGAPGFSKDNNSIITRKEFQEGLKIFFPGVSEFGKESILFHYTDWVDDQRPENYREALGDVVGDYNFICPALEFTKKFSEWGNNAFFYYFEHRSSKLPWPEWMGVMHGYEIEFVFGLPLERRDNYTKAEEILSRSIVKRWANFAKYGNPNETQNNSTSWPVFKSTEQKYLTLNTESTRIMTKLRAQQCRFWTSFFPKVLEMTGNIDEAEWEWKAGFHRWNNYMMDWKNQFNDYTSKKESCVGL

Row | Structure (SMILES) | IC50 [1] | IC50 [2]
1 | O=[N+]([O-])C1C(Cc2c[nH]cn2)NC2(c3ccccc3-c3nc4ccccc4nc32)C1c1ccccn1 (configuration not stated) | 24.3 µM | 17 µM
2 | COc1cccc(C2C([N+](=O)[O-])C(Cc3c[nH]cn3)NC23c2ccccc2-c2nc4ccccc4nc23)c1 (configuration not stated) | 14.7 µM | 9.2 µM
3 | O=[N+]([O-])C1C(Cc2c[nH]cn2)NC2(c3ccccc3-c3nc4ccccc4nc32)C1c1ccccc1 (configuration not stated) | 15.6 µM | 11.8 µM
4 | COc1ccccc1C1C([N+](=O)[O-])C(Cc2c[nH]cn2)NC12c1ccccc1-c1nc3ccccc3nc12 (configuration not stated) | 14.2 µM | 5.22 µM
5 | Cc1cccc(C2C([N+](=O)[O-])C(Cc3c[nH]cn3)NC23c2ccccc2-c2nc4ccccc4nc23)c1 (configuration not stated) | 13.6 µM | 7.8 µM
6 | Cc1ccccc1C1C([N+](=O)[O-])C(Cc2c[nH]cn2)NC12c1ccccc1-c1nc3ccccc3nc12 (configuration not stated) | 13.8 µM | 10 µM
7 | O=[N+]([O-])C1C(Cc2c[nH]cn2)NC2(c3ccccc3-c3nc4ccccc4nc32)C1c1ccc(Cl)cc1 (configuration not stated) | 21.6 µM | 18.2 µM
8 | O=[N+]([O-])C1C(Cc2c[nH]cn2)NC2(c3ccccc3-c3nc4ccccc4nc32)C1c1ccco1 (configuration not stated) | 22.3 µM | 14.2 µM
9 | O=[N+]([O-])C1C(Cc2c[nH]cn2)NC2(c3ccccc3-c3nc4ccccc4nc32)C1c1ccc(Br)cc1 (configuration not stated) | 26.6 µM | 16.2 µM
10 | Cc1ccc(C2C([N+](=O)[O-])C(Cc3c[nH]cn3)NC23c2ccccc2-c2nc4ccccc4nc23)cc1 (configuration not stated) | 12.4 µM | 2.02 µM
11 | COc1ccc(C2C([N+](=O)[O-])C(Cc3c[nH]cn3)NC23c2ccccc2-c2nc4ccccc4nc23)cc1 (configuration not stated) | 11.5 µM | 2.05 µM
